Patent publication US10815222B2, “Compounds for use in the treatment of kinetoplastid infection” (C.N.C.C.S. S.c.a.r.l. COLLEZIONE NAZIONALE DEI COMPOSTI …, priority 2016, dated 2020)

What follows are molecules tested on Bloodstream form of Trypanosoma brucei, strain Lister 427 (assay: Trypanosoma brucei growth inhibition assay (CellTiter-Glo, 24 h)). Conditions: Trypanosoma brucei; T. Brucei Growth Inibition Assay, class symbols; read-out: T. Brucei GI EC50.
Format: cell-based
Outline: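 Bloodstream-form T. brucei Lister 427, 1500 parasites per well in supplemented IMDM with 10% FBS, were exposed to compound (DMSO ≤0.25% final) for 24 h at 37 °C. Viability was measured by CellTiter-Glo luminescence.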

First: COc1nc2ccccc2cc1-c1cnc(C2CN([S+]([O-])C(C)C)CCN2C(=O)Cc2c(C)[nH]c3ccc(F)cc23)[nH]1 (stereo not shown) [2-(5-fluoro-2-methyl-1H-indol-3-yl)-1-(4-(isopropylsulfinyl)-2-(5-(2-methoxyquinolin-3-yl)-1H-imidazol-2-yl)piperazin-1-yl)ethan-1-one]
Second: COc1nc2ccccc2cc1-c1cnc(C2CN(CC(C)C)CCN2C(=O)Cc2c(C)[nH]c3ccc(F)cc23)[nH]1 (stereo not shown)
The EC50 of the first is higher: 1010 to 5000 nM for the first, 100 to 500 nM for the second. The second is the more potent here.

Compared with `COc1nc2ccccc2cc1-c1cnc([C@@H]2CCN(Cc3ccn(C)n3)CCN2C(=O)[C@@](OC)(c2ccccc2)C(F)(F)F)[nH]1`, `COc1nc2ccccc2cc1-c1cnc([C@@H]2CN(Cc3cnccn3)CCN2C(=O)Cn2c(C(F)(F)F)nc3ccccc32)[nH]1` [(S)-1-(2-(5-(2-methoxyquinolin-3-yl)-1H-imidazol-2-yl)-4-(pyrazin-2-ylmethyl)piperazin-1-yl)-2-(2-(trifluoromethyl)-1H-benzo[d]imidazol-1-yl)ethan-1-one] is lower in EC50: 1010 to 5000 nM for the first, < 100 nM for the second.

`COc1ccc2nc(C)n(CC(=O)N3CCN(CC4CCOC4)C[C@H]3c3ncc(-c4cc5ccccc5cn4)[nH]3)c2c1` (stereo partly drawn) [1-((2S)-2-(5-(isoquinolin-3-yl)-1H-imidazol-2-yl)-4-((tetrahydrofuran-3-yl)methyl)piperazin-1-yl)-2-(6-methoxy-2-methyl-1H-benzo[d]imidazol-1-yl)ethan-1-one] and `COc1ccc2nc(C)n(CC(=O)N3CCN(C[C@H]4CCOC4)CC3c3ncc(-c4ccc(-c5ccccc5)nc4OC)[nH]3)c2c1` (stereo partly shown) fall in the same range of EC50: 100 to 500 nM for the first, 100 to 500 nM for the second.

`CN1CCN(C(=O)Cn2cc3ccccc3n2)C(c2ncc(-c3ccc4ccccc4c3)[nH]2)C1` (stereo not shown) and `CN1CCN(C(=O)Cc2cn(C)c3ccccc23)C(c2ncc(-c3ccc4ccccc4c3)[nH]2)C1` (stereo not shown) fall in the same range of EC50: 1010 to 5000 nM for the first, 1010 to 5000 nM for the second.

First: COc1nc2ccccc2cc1-c1cnc([C@@H]2CN(CC3CCOC3)CCN2C(=O)Cn2c(CC(F)(F)F)nc3ccccc32)[nH]1 (stereo partly shown)
Second: COc1nc2ccccc2cc1-c1cnc([C@@H]2CN(CC3CCOC3)CCN2C(=O)Cn2c(C(C)(C)C)nc3ccccc32)[nH]1 (stereo partly drawn) [2-(2-(tert-butyl)-1H-benzo[d]imidazol-1-yl)-1-((2S)-2-(5-(2-methoxyquinolin-3-yl)-1H-imidazol-2-yl)-4-((tetrahydrofuran-3-yl)methyl)piperazin-1-yl)ethan-1-one]
The EC50 of the first is higher: 100 to 500 nM for the first, < 100 nM for the second.

First: COc1nc2ccccc2cc1-c1cnc(C2CN(C(=O)C3CCOC3)CCN2C(=O)Cc2c(C)[nH]c3ccc(F)cc23)[nH]1 (stereo not shown) [2-(5-fluoro-2-methyl-1H-indol-3-yl)-1-(2-(5-(2-methoxyquinolin-3-yl)-1H-imidazol-2-yl)-4-(tetrahydrofuran-3-carbonyl)piperazin-1-yl) ethan-1-one]
Second: COc1nc2ccccc2cc1-c1cnc(C2CN(CC3CCCC3)CCN2C(=O)Cc2c(C)[nH]c3ccc(F)cc23)[nH]1 (stereo not shown)
The EC50 of the first is higher: 1010 to 5000 nM for the first, 100 to 500 nM for the second.

`COc1ccc2nc(C(F)(F)F)n(CC(=O)N3C[C@H](NC4CCOC4)CC[C@H]3c3ncc(-c4cc5ccccc5nc4OC)[nH]3)c2c1` (stereo partly drawn) [2-(6-methoxy-2-(trifluoromethyl)-1H-benzo[d]imidazol-1-yl)-1-((2S,5R)-2-(5-(2-methoxyquinolin-3-yl)-1H-imidazol-2-yl)-5-((tetrahydrofuran-3-yl)amino)piperidin-1-yl)ethan-1-one] and `COc1ccc2nc(C(F)(F)F)n(CC(=O)N3CCN(C4CCS(=O)(=O)CC4)C[C@H]3c3ncc(-c4cc5ccccc5nc4OC)[nH]3)c2c1` [(S)-1-(4-(1,1-dioxidotetrahydro-2H-thiopyran-4-yl)-2-(5-(2-methoxyquinolin-3-yl)-1H-imidazol-2-yl)piperazin-1-yl)-2-(6-methoxy-2-(trifluoromethyl)-1H-benzo[d]imidazol-1-yl)ethan-1-one] cannot be ordered by EC50: < 100 nM for the first, < 100 nM for the second.

`COC(=O)CCCN1CCN(C(=O)Cc2c(C)[nH]c3ccc(OC)cc23)C(c2ncc(-c3ccc4ccccc4c3)[nH]2)C1` (stereo not shown) and `CCC(=O)CCC(=O)N1CCN(C(=O)Cc2c(C)[nH]c3ccc(OC)cc23)C(c2ncc(-c3ccc4ccccc4c3)[nH]2)C1` (stereo not shown) fall in the same range of EC50: 100 to 500 nM for the first, 100 to 500 nM for the second.

`COc1ccc2nc(O)cc(C(=O)N3CCN(CC4CCOC4)CC3c3ncc(-c4cc5ccccc5nc4OC)[nH]3)c2c1` (stereo not shown) and `COc1nc2ccccc2cc1-c1cnc([C@@H]2CN(CC3CCOC3)CCN2C(=O)Cn2c(C)nc3ncncc32)[nH]1` (stereo partly shown) fall in the same range of EC50: 1010 to 5000 nM for the first, 1010 to 5000 nM for the second.

First: COc1ccc2nc(C(F)(F)F)n(CC(=O)N3CC[C@H](NCc4cnoc4)C[C@H]3c3ncc(-c4cc5ccccc5nc4OC)[nH]3)c2c1 [1-((2S,4S)-4-((isoxazol-4-ylmethyl)amino)-2-(5-(2-methoxyquinolin-3-yl)-1H-imidazol-2-yl)piperidin-1-yl)-2-(6-methoxy-2-(trifluoromethyl)-1H-benzo[d]imidazol-1-yl)ethan-1-one]
Second: COc1ccc2nc(C(F)(F)F)n(CC(=O)N3CCN(Cc4cn[nH]c4)CCC3c3ncc(-c4cc5ccccc5nc4OC)[nH]3)c2c1 (stereo not shown)
The EC50 of the first is lower: < 100 nM for the first, 100 to 500 nM for the second. The first is the more potent here.

`COc1nc2ccccc2cc1-c1cnc(C2CN(CC3CC3)CCN2C(=O)CC2=C(C)NC3C=CC=CC23)[nH]1` (stereo not shown) and `CCCCCCN1CCN(C(=O)CC2=C(C)NC3C=CC=CC23)C(c2ncc(-c3cc4ccccc4nc3OC)[nH]2)C1` (stereo not shown) fall in the same range of EC50: 100 to 500 nM for the first, 100 to 500 nM for the second.

First: CCC(=O)CCCN1CCN(C(=O)Cc2ccccc2)C(c2ncc(-c3cc4ccccc4nc3OC)[nH]2)C1 (stereo not shown)
Second: COc1nc2ccccc2cc1-c1cnc(C2CN(Cc3ccoc3)CCN2C(=O)Cc2c(C)[nH]c3ccc(F)cc23)[nH]1 (stereo not shown)
The EC50 of the first is higher: 1010 to 5000 nM for the first, 100 to 500 nM for the second.

First: Cc1[nH]c2ccccc2c1CC(=O)N1CCN(CC2CCOC2)CC1c1ncc(-c2ccc3ccccc3c2)[nH]1 (stereo not shown) [2-(2-methyl-1H-indol-3-yl)-1-(2-(5-(naphthalen-2-yl)-1H-imidazol-2-yl)-4-((tetrahydrofuran-3-yl)methyl)piperazin-1-yl)ethan-1-one]
Second: COc1ncc(CN2CCN(C(=O)Cc3c(C)[nH]c4ccc(F)cc34)C(c3ncc(-c4cc5ccccc5nc4OC)[nH]3)C2)cn1 (stereo not shown)
The EC50 of the first is lower: < 100 nM for the first, 100 to 500 nM for the second. The first is the more potent here.

`COc1nc2ccccc2cc1-c1cnc([C@@H]2CN(C3CCS(=O)(=O)CC3)CCN2C(=O)Cn2c(C(F)(F)F)nc3ccccc32)[nH]1` [(S)-1-(4-(1,1-dioxidotetrahydro-2H-thiopyran-4-yl)-2-(5-(2-methoxyquinolin-3-yl)-1H-imidazol-2-yl)piperazin-1-yl)-2-(2-(trifluoromethyl)-1H-benzo[d]imidazol-1-yl)ethan-1-one] and `COc1ccc2nc(C(F)(F)F)n(CC(=O)N3CCN(Cc4nccs4)C[C@H]3c3ncc(-c4cc5ccccc5nc4OC)[nH]3)c2c1` [(S)-2-(6-methoxy-2-(trifluoromethyl)-1H-benzo[d]imidazol-1-yl)-1-(2-(5-(2-methoxyquinolin-3-yl)-1H-imidazol-2-yl)-4-(thiazol-2-ylmethyl)piperazin-1-yl)ethan-1-one] cannot be ordered by EC50: < 100 nM for the first, < 100 nM for the second.

First: COc1nc2ccccc2cc1-c1cnc(C2CN(S(=O)(=O)N(C)C)CCN2C(=O)Cc2c(C)[nH]c3ccc(F)cc23)[nH]1 (stereo not shown) [4-(2-(5-fluoro-2-methyl-1H-indol-3-yl)acetyl)-3-(5-(2-methoxyquinolin-3-yl)-1H-imidazol-2-yl)-N,N-dimethylpiperazine-1-sulfonamide]
Second: COc1ccc2[nH]c(C)c(CC(=O)N3CCN(C(=O)OC(C)(C)C)CC3c3ncc(-c4cc5ccccc5nc4OC)[nH]3)c2c1 (stereo not shown)
The EC50 of the first is higher: 1010 to 5000 nM for the first, 100 to 500 nM for the second.

For `COc1ccc2nc(C)n(CC(=O)N3CCS(=O)(=O)CC3c3ncc(-c4cc5ccccc5nc4OC)[nH]3)c2c1` (stereo not shown), the EC50 was 1010 to 5000 nM.
